Results on four molecules are retold here after patent publication EP0109697B1, “Rodent bait” (priority 1982, dated 1984).

Series [1] concerns Rats. As to the kind of experiment: Feeding trials with various acute poisons in formulation C particles (Example 11), rats. Type of series: in vivo. The note with it: RAT, formulation C particle 1.5 × 1.5 mm. On the procedure: (§1) Particles containing various acute poisons were made according to Formulation C, and feeding trials were carried out with rats and with mice.
Another series deals with female Wistar rats. As to the kind of experiment: Feeding test of totally homogeneous aldicarb bait (Example 1), rats. Format: in vivo, rat. The note with it: for Kill Rat: 100 ppm aldicarb in medium oatmeal, 5 female Wistar rats. From the text: (§2) Except where otherwise stated, baits according to the invention were produced by thoroughly hand mixing the particles with medium oatmeal, and the baits were fed to caged rats and mice as the sole feed. Water was made freely available to them. The baits remaining in each cage were weighed daily, and fresh baits provided each day.
(§3) Totally homoneneous baits were produced by slurrying an acetone solution of aldicarb on medium oatmeal to give a concentrate, then diluting the concentrate with medium oatmeal by hand mixing, to give an aldicarb concentration of 100 ppm. The toxicity of the resulting bait was determined by tests on 5 female Wistar rats and 10 male LACA mice.

In series [2] the test system is male LACA mice. Description: Feeding test of totally homogeneous aldicarb bait (Example 1), mice. Type of series: in vivo, mouse. The note with it: for Kill Mouse: 100 ppm aldicarb in medium oatmeal, 10 male LACA mice.
From the text: as §2, §3

The next series deals with Wistar females. Description: Feeding test of formulation A 1.25 mg particles in oatmeal (Example 2). The note with it: one 1.25 mg pellet per 20 grams of oatmeal, 5 Wistar females. Type of series: in vivo, rat. The protocol:
as §2
The toxicity of aldicarb particles made to formulation A was determined by tests on 5 Wistar females exposed to medium oatmeal containing one 1.25 mg pellet per 20 grams of oatmeal.

The test system of series [3] is Heterozygous anti-coagulant resistant rats. As to the kind of experiment: Feeding test of formulation A 1.25 mg particles in oatmeal (Example 3). Format: in vivo, rat. The note with it: one 1.25 mg particle per 20 grams of oatmeal, bait not changed daily, 5 heterozygous anti-coagulant resistant rats. On the procedure:
as §2
5 Heterozygous anti-coagulant resistant rats were allowed to feed on bait consisting of medium oatmeal containing one 1.25 mg particle made to formulation A per 20 grams of oatmeal. The bait was weighed daily, but in this example it was not changed daily.

Series [4] has as its system male LACA mice. As to the kind of experiment: Feeding test of formulation A 0.5 mg particles in oatmeal (Example 4). Format: in vivo, mouse. The note with it: 10 male LACA mice. On the procedure:
as §2
10 Male LACA mice were fed with bait consisting of medium oatmeal containing one 0.5 mg particle made according to formulation A per 10 grams of oatmeal.

For series [5], the system named is male LACA mice. Description: Feeding test of formulation A 0.2 mg particles in oatmeal (Example 5). The note with it: 10 male LACA mice. Format: in vivo, mouse. The protocol: as §2
10 Male LACA mice were permitted to feed on bait consisting of medium oatmeal containing one 0.2 mg particle of formulation A per-2 grams of oatmeal.

The subject of series [6] is male LACA mice. As to the kind of experiment: Feeding test of formulation B 0.2 mg particles in oats (Example 6). Format: in vivo, mouse. The note with it: 50 g medium oats with 10 particles of formulation B, 0.2 mg aldicarb each; 5 male LACA mice starved for 24 hours; Day 1. The protocol:
as §2
5 Male LACA mice were starved for 24 hours and then permitted to feed on 50 g of medium oats containing dispersed therein 10 particles of formulation B each containing 0.2 mg of aldicarb.

Series [7] deals with Male heterozygous resistant rats. As to the kind of experiment: Feeding test of formulation B 1.1 mg particles in oatmeal (Example 7). Type of series: in vivo, rat. The note with it: 50 g medium oatmeal with 10 particles of formulation B, 1.1 mg aldicarb each; 3 male heterozygous resistant rats; Day 1. The protocol: as §2
3 Male heterozygous resistant rats were permitted to feed on 50 g medium oatmeal containing 10 particles of formulation B each containing 1.1 mg of aldicarb.

In series [8] the test system is female 300-350 gram Wistar rats. Description: Feeding test of mouse bait particles on rats (Example 8). The note with it: for Mouse bait particles Rat Kill: 0.1 mg aldicarb particles, one per two grams of oatmeal (50 ppm), five female Wistar rats. Format: in vivo, rat. The protocol:
(§4) Particles of a size suitable for consumption whole (without nibbling) by mice, i.e. about 0.5 mm diameter spheres, containing 0.1 mg of aldicarb per particle were produced by a precipitation process.
(§5) The mouse bait particles were distributed in medium oatmeal at the concentration of one per two grams of oatmeal (50 ppm), and the rat bait particles were distributed in medium oatmeal at the concentration of one per twenty grams of oatmeal (50 ppm).
(§6) Ten male 12-18 gram LAC mice and five female 300-350 gram Wistar rats were permitted to feed on the mouse bait; and five female 300-350 gram Wistar rats were allowed to feed on the rat bait. The baits were topped up when necessary to keep a supply of food material available, and water was supplied freely.

The next series deals with male 12-18 gram LAC mice. As to the kind of experiment: Feeding test of mouse bait particles on mice (Example 8). Type of series: in vivo. The note with it: for Mouse bait particles Mouse Kill: 0.1 mg aldicarb particles, one per two grams of oatmeal (50 ppm), ten male LAC mice. The protocol:
as §4, §5, §6

Series [9] concerns female 300-350 gram Wistar rats. As to the kind of experiment: Feeding test of rat bait particles on rats (Example 8). The note with it: for Rat bait particles Rat Kill: 1.0 mg aldicarb particles, one per twenty grams of oatmeal (50 ppm), five female Wistar rats. Format: in vivo. On the procedure:
Suitably larger particles appropriate for rats, i.e. about 1 mm x 1 mm cylinders, containing 1.0 mg of aldicarb per particle were produced by extrusion.
as §5, §6

The subject of series [10] is mice with a body weight approximately 20 g. Description: No-choice feeding test of three 100 ppm aldicarb presentations (Example 9), mice. Type of series: in vivo, mouse. The note with it: for Mouse Kill %: no choice, after 5 days. The protocol: (§7) Three baits were produced containing the toxicant aldicarb, each at 100 ppm (0.01%) concentration. Aldicarb was presented in the bait either homogeneously dispersed in the manner of a conventional rodenticide, as discrete 0.4 x 0.4 mm particles, (formulation C) or as discrete 1.0 x 1.0 mm particles. The diluent was medium grade oatmeal in all cases. Tests were carried out on mice with a body weight approximately 20 g, rats with a body weight approximately 250 g, and rabbits with a body weight approximately 2,500 g.
(§8) Baits were offered with no choice of alternative food for five days.

For series [11], the system named is rats with a body weight approximately 250 g. As to the kind of experiment: No-choice feeding test of three 100 ppm aldicarb presentations (Example 9), rats. Format: in vivo, rat. The note with it: after 5 days. The protocol:
as §7, §8

A further series is described as follows: in vivo. Type of series: in vivo, rabbit. The note with it: rabbit, in vivo, po; 100 ppm as HOMOGENEOUS; no choice, after 5 days; read-out: Rabbit Kill %. On the procedure:
as §7, §8

The test system of series [12] is rabbits with a body weight approximately 2,500 g. Description: in vivo. The note with it: 100 ppm aldicarb; any of the three formulations. Type of series: in vivo, rabbit. The protocol:
as §7, §8

For series [13], the system named is Rats. As to the kind of experiment: Determination of optimum particle size (Example 10), rats. Type of series: in vivo, rat. The note with it: formulation C, one particle per 10 g diet base, after 5 days. The source says:
(§9) Rats were offered medium oatmeal diet containing aldicarb particles (formulation C) at the rate of one per 10 g diet base and mice were offered the particles at the rate of one per 4 g diet base.

Series [14] deals with mice. Description: Determination of optimum particle size (Example 10), mice. Format: in vivo, mouse. The note with it: formulation C, one particle per 4 g diet base, after 5 days.
From the text: as §9

Series [15] has as its system mice. Description: Feeding trials with various acute poisons in formulation C particles (Example 11), mice. Type of series: in vivo. The note with it: MOUSE; formulation C particle 0.45 × 0.45 mm; bait conc. 22.5 ppm. On the procedure: as §1
Setting [16] is: formulation A 0.5 mg aldicarb particles, 4 days.
[17] abbreviates: 100 ppm as 0.4 × 0.4 mm particles (formulation C).
Setting [18] is: 100 ppm as 1.0 × 1.0 mm particles.

As to `O=C(O)CF` [SODIUM FLUOROACETATE, Sodium fluoroacetate], in the series with Rats [1] (bait conc. 250 ppm), the “DAYS TO KILL” value amounted to 2 days and the Kill (%) came out at 100%.

On to `CNC(=O)O/N=C/C(C)(C)SC` [aldicarb, 2 methyl-2-(methylthio) propionaldehyde 0-(methylcarbamoyl) oxime], for which the “Kill Rat” value with female Wistar rats (Day 1), with female Wistar rats (Day 2) and with female Wistar rats (Day 3) was 0 out of 5 throughout. Besides, the kills recorded entry in the series with female Wistar rats (100 ppm aldicarb, rats, after 3 days exposure) was “no kills”; in the series with male LACA mice [2] (100 ppm aldicarb, mice, after 4 days exposure) it was “no kills”. In addition, the “Kill Mouse” value with male LACA mice [2] (Day 1), in the series with male LACA mice [2] (Day 2), in the series with male LACA mice [2] (Day 3) and in the series on male LACA mice [2] (Day 4) was 0 out of 10 throughout. In addition, the Kill with Wistar females (Day 1) was 2 out of 5; with Wistar females (Day 3) it was “Remaining rat killed”; in [3] (Day 1) it was 3 out of 5; in series [3] (Day 3) it was “Remaining rat killed”; in the series with male LACA mice [4] (setting [16]), 40%; with male LACA mice [4] (formulation A, one 0.5 mg particle per 10 grams of oatmeal, Day 1) it was 1 out of 10. Further, the Kill is reported as 100% in the series with male LACA mice [5] (formulation A 0.2 mg aldicarb particles, Example 5); 4 out of 10 in the series on male LACA mice [5] (formulation A, one 0.2 mg particle per 2 grams of oatmeal, Day 1); 2 out of 5 in the series on male LACA mice [6]; “All killed” in series [7]. Besides, in the series on male LACA mice [4] (setting [16]), the “mice killed (total of Example 4)” value is on record as 4 out of 10. Besides, the “Mouse bait particles Rat Kill” value in series [8] (Day 1), in series [8] (Day 2), in series [8] (Day 3), in [8] (Day 4) and in series [8] (Day 5 to 7) was 0/5 throughout. The “kill of rats feeding on the mouse bait” value in series [8] (0.1 mg particles, 50 ppm bait, seven days of feeding) is reported as “not killed even after seven days”. The results for the “Mouse bait particles Mouse Kill” value in the series with male 12-18 gram LAC mice (Day 1) and in the series on male 12-18 gram LAC mice (Day 3) were 4 out of 10 and “Remaining mouse died”, respectively. Moreover, the “death of all animals” value in the series on male 12-18 gram LAC mice (all mice feeding on the 0.1 mg particles, 50 ppm bait) was “died by the end of the third day”; in [9] (all rats feeding on the 1 mg particles, 50 ppm bait) it was “died by the end of the third day”. Moreover, the “Rat bait particles Rat Kill” value in series [9] (Day 1) is listed as 2 out of 5; in series [9] (Day 3) it was “Remaining rat died”. The death of mice result in series [10] (100 ppm aldicarb on 0.4 x 0.4 mm particles) is “All mice died”. Moreover, the “Mouse Kill %” value in series [10] (setting [17]) was found to be 100%; in series [10] (setting [18]) it was 30%; in series [10] (100 ppm as HOMOGENEOUS), 0%. The “Rat Kill %” value in series [11] (setting [17]) came out at 0%; in [11] (setting [18]) it was 100%; in series [11] (100 ppm as HOMOGENEOUS), 0%. In addition, in the series “in vivo”, the mortality at 120 h stood at 0%. Also, the death of rabbits entry in series [12] is given as “No rabbits died”. Moreover, the “Kill (%)” value in the series on Rats [13] (60—80 g Weaner RATS, particle 0.75 × 0.75 mm) was 100%; in the series with Rats [13] (60—80 g Weaner RATS, particle 1.0 × 1.0 mm) it was 100%; with Rats [13] (60—80 g Weaner RATS, particle 1.5 × 3.0 mm) it was 80%; with Rats [13] (300—400 g Adult RATS, particle 0.75 × 0.75 mm), 50%; with Rats [13] (300—400 g Adult RATS, particle 1.0 × 1.0 mm) it was 100%; with Rats [13] (300—400 g Adult RATS, particle 1.5 × 3.0 mm), 100%. The “Kill (%)” value with mice [14] (12—10 g. Weaner MICE, particle 0.2 × 0.5 mm) was 60%; with mice [14] (12—10 g. Weaner MICE, particle 0.4 × 0.4 mm) it was 100%; with mice [14] (12—10 g. Weaner MICE, particle 0.5 × 0.5 mm) it was 70%; in the series on mice [14] (12—10 g. Weaner MICE, particle 0.75 × 0.75 mm), 57%; in the series with mice [14] (20—25 g Adult MICE, particle 0.2 × 0.5 mm) it was 0%; in the series on mice [14] (20—25 g Adult MICE, particle 0.4 × 0.4 mm), 100%. The “Kill (%)” value with mice [14] (20—25 g Adult MICE, particle 0.5 × 0.5 mm) was determined as 100%.

With `Cc1cc(N(C)C)nc(Cl)n1` [CRIMIDINE, 2 chloro-4-(dimethylamino)-6-methylpyrimidine], in the series on mice [15], the “DAYS TO KILL” value was 5 days and the Kill (%) is listed as 100%. Further, in the series on Rats [1] (bait conc. 250 ppm), the “DAYS TO KILL” value was 3 days and the Kill (%) was found to be 100%.

As to `CC(=O)O[C@@H]1C[C@]2(O)[C@H](CC[C@]3(C)[C@@H](c4ccc(=O)oc4)CC[C@@]32O)[C@@]2(C)CC[C@H](O[C@@H]3O[C@H](CO)[C@@H](O)[C@H](O)[C@H]3O)C=C12` [SCILLIROSIDE, scilliroside], in the series with Rats [1] (bait conc. 50 ppm), the “DAYS TO KILL” value was 2 days and the Kill (%) came out at 100%.
